{
  "source": "patent US20250248926A1",
  "about": "“AN INJECTABLE MICROPARTICLE SYSTEM AND METHOD OF PREPARING THEREOF” (AMRITA VISHWA VIDYAPEETHAM, priority 2022, published 2025)",
  "key": {"[1]": {"settings": "by 3rd hour, CT", "procedure": "Contrast agent Iodine loaded microstructures are injected in left and right hemispheres of a goat brain phantom and imaged over 4 hours using MicroCT (FIG. 21 (A-E)).\nIodine loaded microstructures (in the form of injectable gels) are injected in left and right hemispheres of a goat brain phantom and imaged over 4 hours using CT (FIG. 21 (A-E))."}, "[2]": {"settings": "rat brain", "procedure": "200-250 g Wistar rats (female) were selected for the study. Respective microparticle gel was injected (10 μl/1 mg BCNU) injected at coordinates 2 mm lateral, 2 mm anterior and 2 mm depth using stereotactic equipment. Animals were euthanized 3, 7 and 15 days post injection, brains were excised and stored at −80° C. Each brain was sliced into 1 mm sections and each section was homogenized in 1 ml MilliQ water (pH 4) and precipitated using 10 ml Ethanol. The samples are centrifuged at 10000 rpm for 15 minutes for drug extraction (repeated 4 times). The solvents are evaporated using a vacuum centrifuge and then remnant pellets are analyzed for their drug content using HPLC."}, "C6 (rat glioma) cells": {"test_system": "C6 (rat glioma) cells", "test": "In vitro cytotoxicity, MTT assay, C6 cells", "assay_type": "cell-based", "procedure": "(§1) Cells of seeding density 4×10^4 cells/well were treated with concentrations from 1 μM-100 μM of BCNU or PL loaded microstructures 24 hours post seeding. MTT assay was performed 96 hours post treatment. […] With radiation, the cell viability of non-drug treated controls reduced by ˜60%."}, "[3]": {"test_system": "T98G (human glioma) cells", "test": "In vitro cytotoxicity, MTT assay, T98G cells", "assay_type": "cell-based", "settings": "100 μM (highest concentration), MTT 96 hours post treatment", "procedure": "as §1"}},
  "note": "Read-outs that look alike come from different tables or passages of the source.",
  "data": [
    {"smiles": "II", "note": "[Free iodine]", "values": [
      {"measurement": "diffusion", "setting": "[1]", "result": 1.6, "unit": "cm"}
    ]},
    {"smiles": "O=NN(CCCl)C(=O)NCCCl", "note": "[free BCNU, 1,3-Bis(2-chloroethyl)-1-nitrosourea]", "values": [
      {"measurement": "drug in brain", "setting": "[2]; day-3 post intracranial injection", "result": 15, "unit": "%"},
      {"measurement": "drug in brain", "setting": "[2]; day-15 post intracranial injection", "result": 3.9, "unit": "%"},
      {"measurement": "viability at 100 µM", "setting": "C6 (rat glioma) cells; Rattus norvegicus, C6, 96 h, read-out: cells viable (cell viability)", "result": "~20", "unit": "%"}
    ]},
    {"smiles": "COc1cc(/C=C/C(=O)N2CCC=CC2=O)cc(OC)c1OC", "note": "[free PL, Piperlongumine]", "values": [
      {"measurement": "cells remaining (cell viability)", "setting": "[3]", "result": 16.6, "unit": "%"},
      {"measurement": "cells viable (cell viability)", "setting": "C6 (rat glioma) cells; C6 cells, 100 μM, MTT 96 hours post treatment", "result": "~3", "unit": "%"}
    ]}
  ]
}
